# Experimental data as given in patent US20060286131A1, “Use of stellate ganglion block for the treatment of hot flashes and other conditions” (priority 2005, published 2006).
# Test system: severe menopausal hot flashes
# Test: stellate ganglion block with Marcaine in women with hot flashes, self-reported pre and post block
# Format: in vivo
# Text: A stellate ganglion block is illustratively performed by placing the patient in the supine position (on the back) with the neck slightly extended and the jaw open. While the patient is usually conscious for the procedure, a medication such as Versed (midazolam hydrochloride), fentanyl, or other sedative is often administered, to relax the patient. A local anesthetic is also usually administered, to numb the skin and tissue down to the ganglion nerve. A needle is inserted toward the stellate ganglion. […] The needle 20 is shown inserted adjacent to the stellate ganglion 10. In the illustrative block, a contrast solution is injected through needle 20 via syringe 22, and the needle position is confirmed by fluoroscopy or other means, as are known in the art.
# The anesthetic 30 is then injected via needle 20 into stellate ganglion 10. Illustratively, 5 cc 0.375% Marcaine® (bupivacaine) may be used. However, it is understood that other anesthetics, illustratively lidocaine, morphine or other opioids, clonidine, botox, or tetracine, or a combination of anesthetic and epinephrine, may be used and that the dosage range may vary depending on the particular anesthetic and other factors, as are known in the art. Needle 20 is removed, and the patient is optionally placed in the sitting position to facilitate the spread of anesthesia inferiorly to the stellate ganglion. Illustratively, longer acting anesthetics such as bupivacaine are used, but other anesthetics may be used, as are known in the art. The stellate ganglion block may also be performed by radiofrequency lesioning, as is known in the art.
# Six women suffering from severe menopausal hot flashes each received a standard stellate ganglion block (0.375% Marcaine, 5cc), as described above. Hot flashes were assessed by self-reporting pre and post stellate ganglion block.
compound,measurement,setting,value
"CCCCN1CCCCC1C(=O)Nc1c(C)cccc1C (stereo not shown) [Marcaine, bupivacaine]",additional asymptomatic period of relief after second stellate ganglion block,"0.375% Marcaine 5cc, second block after mild hot flashes returned",4-18 weeks
same,hot flash relief of repeated blocks compared with the initial block,"repeated blocks, each case",equal to or greater than that of the initial block
same,"success of initial stellate ganglion block, evidenced by positive Horner's syndrome and anhydrosis","six women, 0.375% Marcaine 5cc",successful in all six subjects
same,"complete alleviation of hot flashes, duration after initial stellate ganglion block","six women, 0.375% Marcaine 5cc, first block, self-reported",2-5 weeks
